According to patent publication US6635641B2 (Agouron Pharmaceuticals, Inc., priority 2000, dated 2003):
Where a name gives a salt, the structure may show the parent alone. Read-outs that look alike come from different tables or passages of the source.

What was measured:
[1] = target: T1, phosphorylated VEGF-R2Δ50 (FLVK-P) (Homo sapiens, UniProt P35968, DEL940-989/E990V); assay: VEGF-R2 coupled spectrophotometric assay, phosphorylated construct (FLVK-P); format: biochemical
T1 construct: VEGF-R2Δ50 contains residues 806-939 and 990-1171; made in house; host or cells: baculovirus/insect cells
In short: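 Baculovirus-expressed VEGF-R2Δ50 (residues 806-939/990-1171, E990V), optionally autophosphorylated; ADP formation coupled via PK/LDH to NADH oxidation at 340 nm, pH 7.5 Hepes. FLVK-P: 1 mM ATP, 5.1 mM poly(E4Y1), 25 mM MgCl2; FLVK: 3 mM ATP, 20 mM poly(E4Y1), 60 mM MgCl2, 2 mM MnCl2. Ki from activity over compound concentrations.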

[2] = target: T2, unphosphorylated VEGF-R2Δ50 (FLVK) (Homo sapiens, UniProt P35968, DEL940-989/E990V); assay: VEGF-R2 coupled spectrophotometric assay, unphosphorylated construct (FLVK); format: biochemical;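 note: Baculovirus-expressed cytosolic kinase domain, ADP formation linked via pyruvate kinase and lactate dehydrogenase to NADH oxidation, read as falling absorbance at 340 nm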
T2 construct: VEGF-R2Δ50 contains residues 806-939 and 990-1171; made in house; host or cells: baculovirus/insect cells

[3] = test system: human umbilical vein endothelial cells (HUVEC); assay: HUVEC proliferation assay (VEGF-stimulated, MTT); format: cell-based; details: Homo sapiens, read-out: HUVEC IC50
Experimental: This assay determines the ability of a test compound to inhibit the growth factor-stimulated proliferation of human umbilical vein endothelial cells (“HUVEC”). HUVEC cells (passage 3-4, Clonetics, Corp.) were thawed into EGM2 culture medium (Clonetics Corp) in T75 flasks. Fresh EGM2 medium was added to the flasks 24 hours later. Four or five days later, cells were exposed to another culture medium (F12K medium supplemented with 10% fetal bovine serum (FBS), 60 μg/ml endothelial cell growth supplement (ECGS), and 0.1 mg/ml heparin). Exponentially-growing HUVEC cells were used in experiments thereafter. Ten to twelve thousand HUVEC cells were plated in 96-well dishes in 100 μl of rich, culture medium (described above). The cells were allowed to attach for 24 hours in this medium. The medium was then removed by aspiration and 105 μl of starvation media (F12K+1% FBS) was added to each well. After 24 hours, 15 μl of test agent dissolved in 1% DMSO in starvation medium or this vehicle alone was added into each treatment well; the final DMSO concentration was 0.1%. One hour later, 30 μl of VEGF (30 ng/ml) in starvation media was added to all wells except those containing untreated controls; the final VEGF concentration was 6 ng/ml. Cellular proliferation was quantified 72 hours later by MTT dye reduction, at which time cells were exposed for 4 hours MTT (Promega Corp.). Dye reduction was stopped by addition of a stop solution (Promega Corp.) and absorbance at 595 λ was determined on a 96-well spectrophotometer plate reader.

[4] = test system: lung cancer cells (line MV522); assay: Cancer cell proliferation (MV522) assay (MTT); format: cell-based
Experimental: The protocol for assessing cellular proliferation in cancer cells is similar to that used for assessments in HUVEC cells. Two thousand lung cancer cells (line MV522, acquired from American Tissue Cultural Collection) were seeded in growth media (RPMI1640 medium supplemented with 2 mM glutamine and 10% FBS). Cells are allowed to attach for 1 day prior to addition of test agents and/or vehicles. Cells are treated simultaneously with the same test agents used in the HUVEC assay. Cellular proliferation is quantified by MTT dye reduction assay 72 hours after exposure to test agents. The total length of the assay is 4 days vs. 5 for HUVEC cells because MV522 cells are not exposed to starvation medium.

[5] = target: T3, LCK tyrosine kinase (Homo sapiens, UniProt P06239, C224D/P223M); assay: LCK spectrophotometric assay; format: biochemical; details: @ 1 μM; read-out: LCK-P percent inhibition;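 note: recombinant LCK kinase activity on poly(E4Y1), ADP formation coupled through PK/LDH to NADH oxidation, followed as absorbance loss at 340 nm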
T3 construct: starting from amino acid residue 223 to the end of the protein at residue 509; made in house; host or cells: insect cells
T3 sequence (P06239 223-509 P223M/C224D): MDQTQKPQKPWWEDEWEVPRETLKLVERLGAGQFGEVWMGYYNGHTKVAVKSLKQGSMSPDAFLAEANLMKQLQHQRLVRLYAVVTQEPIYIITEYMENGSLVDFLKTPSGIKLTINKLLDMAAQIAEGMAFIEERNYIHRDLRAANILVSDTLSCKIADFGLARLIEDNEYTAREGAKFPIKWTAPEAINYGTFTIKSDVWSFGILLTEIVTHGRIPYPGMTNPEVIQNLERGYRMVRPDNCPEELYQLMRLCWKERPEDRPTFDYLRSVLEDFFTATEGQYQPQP
Experimental: The production of ADP from ATP that accompanies phosphoryl transfer was coupled to oxidation of NADH using phosphoenolpyruvate (PEP) and a system having pyruvate kinase (PK) and lactic dehydrogenase (LDH). The oxidation of NADH was monitored by following the decrease of absorbance at 340 nm (e340=6.22 cm^−1 mM^−1) using a Beckman DU 650 spectrophotometer. Assay conditions for phosphorylated VEGF-R2Δ50 (indicated as FLVK-P in the tables below) were the following: 1 mM PEP; 250 μM NADH; 50 units of LDH/mL; 20 units of PK/mL; 5 mM DTT; 5.1 mM poly(E4Y1); 1 mM ATP; and 25 mM MgCl2 in 200 mM Hepes, pH 7.5. Assay conditions for unphosphorylated VEGF-R2Δ50 (indicated as FLVK in the tables) were the following: 1 mM PEP; 250 μM NADH; 50 units of LDH/mL; 20 units of PK/mL; 5 mM DTT; 20 mM poly(E4Y1); 3 mM ATP; and 60 mM MgCl2 and 2 mM MnCl2 in 200 mM Hepes, pH 7.5. Assays were initiated with 5 to 40 nM of enzyme. Ki values were determined by measuring enzyme activity in the presence of varying concentrations of test compounds. The data were analyzed using Enzyme Kinetic and Kaleidagraph software.

T1 sequence (P35968 with tags, fused parts or gaps DEL940-989/E990V limits assumed): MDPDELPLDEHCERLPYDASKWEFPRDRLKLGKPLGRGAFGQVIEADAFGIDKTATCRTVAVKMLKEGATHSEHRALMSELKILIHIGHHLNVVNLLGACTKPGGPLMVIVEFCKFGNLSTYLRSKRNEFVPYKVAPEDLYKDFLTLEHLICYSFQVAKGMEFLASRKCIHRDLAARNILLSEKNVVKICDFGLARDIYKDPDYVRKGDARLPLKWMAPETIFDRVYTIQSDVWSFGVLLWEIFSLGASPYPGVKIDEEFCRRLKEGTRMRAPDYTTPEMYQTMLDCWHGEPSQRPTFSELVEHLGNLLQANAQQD
T2 sequence (P35968 with tags, fused parts or gaps DEL940-989/E990V limits assumed): as above

O=C(Nc1ccc(N2CCNCC2)c(C(F)(F)F)c1)c1ccc(F)c(OCc2cncc3ccccc23)c1 (as salt: hydrochloride) [Example R-15, 4-Fluoro-N-(4-piperazin-1-yl-3-trifluoromethyl-phenyl)-3-(isoquinolin-4-ylmethoxy)-benzamide]
melting point: 103 to 107 °C

O=C(Nc1ccc(N2CCNCC2)c(C(F)(F)F)c1)c1ccc(F)c(OCc2cnc3ccccc3c2)c1 (as salt: hydrochloride) [Example R-17, 4-Fluoro-N-(4-piperazin-1-yl-3-trifluoromethyl-phenyl)-3-(quinolin-3-ylmethoxy)-benzamide]
melting point: 76 to 78 °C

O=C(Nc1cccc(OCc2cccnc2)c1)N1CCOCC1 (as salt: salt) [Example Y-2, 4-[3-(pyridin-3-ylmethoxy)phenylcarbamoyl]morpholine]
melting point: 58 to 62 °C

COc1cc(NC(=O)c2cccc(CSc3cnccn3)c2)cc(OC)c1OC [Example A-1, N-(3,4,5-Trimethoxyphenyl)-3-[(pyrazin-2-yl)sulfanylmethyl]benzamide]
melting point: 112 to 119 °C
Ki [1]: 785 nM

Cc1ccc2cc(NC(=O)c3cccc(CSc4cnccn4)c3)ccc2n1 [Example A-6, N-(2-Methylquinolin-6-yl)-3-[(pyrazin-2-yl)sulfanylmethyl]benzamide]
melting point: 133 to 135 °C
Ki [1]: 1050 nM

Cc1c(Br)cc(NC(=O)c2cccc(CSc3cnccn3)c2)cc1Br [Example A-8, N-(3,5-Dibromo-4-methylphenyl)-3-[(pyrazin-2-yl)sulfanylmethyl]benzamide]
Ki [2]: 1.9 nM
IC50 ([3]; HUVEC): 740 nM
IC50 ([4]; MV522): > 10000 nM
Ki [1]: 3.36 nM

O=C(Nc1ccc2ncccc2c1)c1cccc(CSc2ncnc3[nH]ncc23)c1 [Example B-3, N-(Quinolin-6-yl)-3-[(1H-pyrazolo[3,4-d]pyrimidin-4-yl)sulfanylmethyl]benzamide]
melting point: 236 to 240 °C (dec.)
Ki [1]: 406 nM

COc1cc(NC(=O)c2cccc(CSc3ncnc4[nH]ncc34)c2)cc(C(F)(F)F)c1 [Example B-16, 3-[(1H-Pyrazolo[3,4-d]pyrimidin-4-yl)sulfanylmethyl]-N(3-trifluoromethyl-5-methoxyphenyl)-benzamide]
inhibition at 1 µM [5]: 9%
IC50 ([3]; HUVEC): 370 nM
IC50 ([4]; MV522): > 10000 nM
Ki [1]: 15 nM

COc1cc(NC(=O)c2cccc(CSc3nc(NC#N)n[nH]3)c2)cc(OC)c1OC [Example C-1, 3-[(5-Cyanoamino-2H-[1,2,4]triazol-3-yl)sulfanylmethyl]-N-(3,4,5-trimethoxyphenyl)benzamide]
melting point: > 165 °C (dec.)

COC(=O)Nc1n[nH]c(SCc2cccc(C(=O)Nc3cc(OC)c(OC)c(OC)c3)c2)n1 [Example C-2, 3-[(5-(Methoxycarbonylamino)-2H-[1,2,4]triazol-3-yl)sulfanylmethyl]-N-(3,4,5-Trimethoxyphenyl)benzamide]
melting point: > 150 °C (dec.)

COc1cc(NC(=O)c2cccc(CSc3nc(NC(C)=O)n[nH]3)c2)cc(OC)c1OC [Example C-3, N-(3,4,5-Trimethoxyphenyl)-3-[(5-acetylamino-2H-[1,2,4]triazol-3-yl)sulfanylmethyl]benzamide]
melting point: 196 to 201 °C

Cc1ccc2cc(NC(=O)c3cccc(SCc4cnccn4)c3)ccc2n1 [Example D-2, N-(2-Methylquinolin-6-yl)-3-[(pyrazin-2-yl)methylsulfanyl]benzamide]
melting point: 102 to 105 °C
Ki [1]: 1640 nM

CSc1cc(C)nc2ccc(NC(=O)c3cccc(OCc4cncc5ccccc45)c3)cc12 [Example K-4, 3-(Isoquinolin-4-yl)methoxy-N-(2-methyl-4-methylsulfanyl-quinolin-6-yl)-benzamide hydrochloride]
IC50 ([3]; HUVEC): 380 nM
IC50 ([4]; MV522): > 10000 nM
Ki [1]: 64 nM

Cc1cc(NC(=O)c2cccc(OCc3ccc(N)nc3)c2)ccc1C(C)C [Example L-1, 3-(6-Aminopyridin-3-yl)methoxy-N-(4-Isopropyl-3-methyl-phenyl)-benzamide]
melting point: 78 to 81 °C

Cc1ccc2cc(NC(=O)c3cccc(OCc4ccc(N)nc4)c3)ccc2n1 [Example M-1, 3-(6-Aminopyridin-3-yl)methoxy-N-(2-methyl-quinolin-6-yl)-benzamide]
melting point: 189 to 192 °C
Ki [1]: 52 nM

O=C(Nc1ccc2c(c1)CCCN2)c1ccc(F)c(OCc2cncc3ccccc23)c1 [Example O-1, 4-Fluoro-N-(1,2,3,4-tetrahydroquinolin-6-yl)-3-(isoquinolin-4-ylmethoxy)-benzamide bistrifluoroacetic acid salt]
Ki [2]: 5.5 nM
IC50 ([3]; HUVEC): > 300 nM
IC50 ([4]; MV522): < 3000 nM

Cc1cc(NC(=O)c2cccc(OCc3cnc(NNC(=O)OC(C)(C)C)c4ccccc34)c2)ccc1C(C)C [Example P-1, N′-{4-[3-(4-isopropyl-3-methyl-phenylcarbamoyl)-phenoxymethyl]-isoquinolin-1-yl}-hydrazinecarboxylic acid tert-butyl ester]
melting point: 125 to 129 °C
inhibition at 0.05 µM ([1]; @ 50 nM, read-out: FLVK-P percent inhibition): 4%

Cc1c(Br)cc(NC(=O)c2cccc(OCc3cncc4ccccc34)c2)cc1Br [Example R-2, N-(3,5-Dibromo-4-methyl-phenyl)-3-(isoquinolin-4-ylmethoxy)-benzamide]
IC50 ([3]; HUVEC): 110 nM
IC50 ([4]; MV522): 430 nM
Ki [1]: 2.53 nM

CC1(C)CCC(C)(C)c2cc(NC(=O)c3cccc(OCc4cncc5ccccc45)c3)ccc21 [Example R-3, 3-(Isoquinolin-4-ylmethoxy)-N-(5,5,8,8-tetramethyl-5,6,7,8-tetrahydronaphthalen-2-yl)-benzamide]
IC50 ([3]; HUVEC): 50 nM
IC50 ([4]; MV522): 9700 nM
inhibition at 5 µM ([1]; @ 5 μM, read-out: FLVK-P percent inhibition): 67%

O=C(Nc1cccc(OC(F)(F)F)c1)c1cccc(OCc2cncc3ccccc23)c1 [Example R-4, 3-(Isoquinolin-4-ylmethoxy)-N-(3-trifluoromethoxy-phenyl)-benzamide]
inhibition at 1 µM [5]: 28%
Ki [2]: 2.4 nM
IC50 ([3]; HUVEC): 88 nM
IC50 ([4]; MV522): 9900 nM
Ki [1]: 9.93 nM

Cc1cc(C)c2cc(NC(=O)c3cccc(OCc4cncc5ccccc45)c3)ccc2n1 [Example R-5, N-(2,4-Dimethylquinolin-6-yl)-3-(isoquinolin-4-ylmethoxy)-benzamide]
Ki [2]: 1.7 nM
IC50 ([3]; HUVEC): 89 nM
IC50 ([4]; MV522): 10000 nM
Ki [1]: 11.2 nM

CC1(C)OC(C)(C)c2cc(NC(=O)c3cccc(OCc4cncc5ccccc45)c3)ccc21 [Example R-10, 3-(Isoquinolin-4-ylmethoxy)-N-(1,1,3,3-tetramethyl-1,3-dihydroisobenzofuran-5-yl)-benzamide]
inhibition at 1 µM [5]: 23%
Ki [2]: 6.9 nM
IC50 ([3]; HUVEC): 28 nM
IC50 ([4]; MV522): > 10000 nM
Ki [1]: 12.1 nM

O=C(Nc1cccc(CSc2ncnc3[nH]ncc23)c1)c1cc(C(F)(F)F)cc(C(F)(F)F)c1 [Example V-2]
IC50 ([3]; HUVEC): 180 nM
IC50 ([4]; MV522): 10000 nM
Ki [1]: 13 nM

CC(C)(C)c1cc(C(=O)Nc2cccc(OCc3cncc4ccccc34)c2)ccc1O [Example X-5, 3-t-Butyl-4-hydroxy-N-[3-(isoquinolin-4-ylmethoxy)-phenyl]-benzamide]
Ki ([2]; unphosphorylated VEGF-R2 construct): 1.3 nM
IC50 ([3]; VEGF-stimulated HUVEC proliferation): 29 nM
IC50 ([4]; MV522 lung cancer cells): 3700 nM
